The values below come from patent US9115140B2, “Thienopyrimidine derivatives, processes for the preparation thereof and therapeutic uses thereof” (SANOFI, priority 2012, dated 2015).

The target in experiment [1] is GST-Alk protein (mutant L1196M 1058-1620) (Homo sapiens (Human), UniProt Q9UM73, L1196M). Put plainly: HTRF kinase test with GST-Alk protein, mutant L1196M (ATP 200 microM, enzyme 1 nM). The experiment is classed as biochemical. Conditions: GST-Alk mutant L1196M 1058-1620, ATP 200 microM.
Experiment [2] concerns the target GST-Alk protein (wild-type form 1058-1620) (Homo sapiens (Human), UniProt Q9UM73). The experiment can be described thus: HTRF kinase test with GST-Alk protein, wild-type form (ATP 400 microM, enzyme 2 nM). Conditions: GST-Alk wild-type form 1058-1620, ATP 400 microM. The experiment is classed as biochemical.

Molecules are shown by their SMILES.

GST-Alk protein (mutant L1196M 1058-1620), sequence (Q9UM73 1058-1620 L1196M): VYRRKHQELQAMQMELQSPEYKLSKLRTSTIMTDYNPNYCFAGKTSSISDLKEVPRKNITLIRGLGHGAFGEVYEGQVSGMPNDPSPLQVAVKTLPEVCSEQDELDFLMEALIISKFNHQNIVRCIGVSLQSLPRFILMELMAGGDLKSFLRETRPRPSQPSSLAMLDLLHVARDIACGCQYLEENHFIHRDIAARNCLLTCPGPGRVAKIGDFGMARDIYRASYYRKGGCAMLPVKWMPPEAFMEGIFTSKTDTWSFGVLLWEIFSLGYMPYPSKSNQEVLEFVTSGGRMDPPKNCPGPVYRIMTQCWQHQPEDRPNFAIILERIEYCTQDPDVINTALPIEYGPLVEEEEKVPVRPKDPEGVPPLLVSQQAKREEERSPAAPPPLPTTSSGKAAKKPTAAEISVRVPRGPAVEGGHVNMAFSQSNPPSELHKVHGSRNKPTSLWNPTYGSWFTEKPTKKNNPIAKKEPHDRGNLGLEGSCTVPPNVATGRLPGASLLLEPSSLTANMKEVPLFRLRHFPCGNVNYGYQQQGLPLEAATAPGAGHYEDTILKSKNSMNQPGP
GST-Alk protein (wild-type form 1058-1620), sequence (Q9UM73 1058-1620): as the sequence (Q9UM73 1058-1620 L1196M) above, with M139L counted along it

On to `COc1nc(C)ccc1-c1c(CO)sc2cnc(Nc3cc(C)c(N4CCN(C)CC4)cc3OC(C)C)nc12` [Compound I-191, [7-(2-Methoxy-6-methylpyridin-3-yl)-2-{[5-methyl-4-(4-methylpiperazin-1-yl)-2-(propan-2-yloxy)phenyl]amino}thieno[3,2-d]pyrimidin-6-yl]methanol], for which the IC50 in experiment [1] was 14 nM; in experiment [2] it was 12 nM.
